From patent publication EP0385936A1, “Peptide lactone and derivatives thereof, process for their production and means for carrying out the process” (CIBA-GEIGY AG, priority 1989, dated 1990)
≈ marks a conversion by molar mass, not a printed value.

Legend:
[1] = test system: Arthrobacter crystallopoietes ATCC 15481; assay: Agar dilution series test, minimal inhibitory concentration; assay type: cell-based; settings: Crystallibacter crystallopoietes, ATCC15481, in vitro, read-out: Minimale Hemmkonzentration
Description: (§1) Hormaomycin zeigt in vitro in einem Agar-Verdünnungsreihentest eine antimikrobielle Wirkung gegen einige Bakterien, z.B. Arthrobacter crystallopoites, Arthrobacter oxydans, Corynebacterium species, Brevibacterium linens und Salmonella typhimurium. Die minimale Hemmkonzentration liegt im Bereich zwischen 0,0001 und 50 µg/ml. Die nachfolgende Tabelle offenbart einige spezifische Beispiele: […]

[2] = test system: Arthrobacter oxydans ATCC 14358; assay: as above; assay type: cell-based; settings: Pseudarthrobacter oxydans, ATCC14358, in vitro, read-out: Minimale Hemmkonzentration
Description: as §1

[3] = test system: Brevibacterium linens ATCC 9172; assay: as above; assay type: cell-based; settings: ATCC9172, in vitro, read-out: Minimale Hemmkonzentration
Description: as §1

[4] = test system: Corynebacterium sp. ATCC 23830; assay: as above; assay type: cell-based; settings: ATCC23830, in vitro, read-out: Minimale Hemmkonzentration
Description: as §1

[5] = test system: Salmonella typhimurium ATCC 13311; assay: as above; assay type: cell-based; settings: Salmonella enterica, in vitro, read-out: Minimale Hemmkonzentration
Description: as §1

[6] = test system: Streptomyces griseoflavus (Tü 1306); assay: Increase of tirandamycin production in fermentation broth; assay type: cell-based
Description: (§2) Hormaomycin bewirkt bereits in einer Konzentration ab etwa 0,05 µg/ml bei einigen Streptomyceten-Stämmen eine Erhöhung der Bildung von Antibiotika.

[7] = test system: einigen Streptomyceten-Stämmen; assay: Increase of antibiotic formation in Streptomyces strains; assay type: cell-based; settings: lowest effective concentration; read-out: Konzentration, ab der eine Erhöhung der Bildung von Antibiotika bewirkt wird
Description: as §2

[8] = test system: Streptomyces griseoflavus (DSM 5195); assay: Induction of aerial mycelium on test plates (paper disc on agar); assay type: cell-based; settings: 1 µg in a paper disc on agar on which no aerial mycelium develops
Excerpt: Hormaomycin induziert die Luftmycelbildung von Streptomyces griseoflavus (DSM 5195) und von weiteren Streptomyces-Stämmen. […] Zusätzlich induziert die Substanz die Antibiotikaproduktion in diesen Stämmen.

[9] = test system: durch anti-CD 3 monoklonale Antikörper induzierten T-Zell-Proliferation in menschlichem Blut; assay: Inhibition of T-cell proliferation induced by anti-CD 3 monoclonal antibodies in human blood (3H-thymidine); assay type: cell-based, menschlich; settings: 50 ng/ml anti-CD 3 antibody, 48 h + 16 h 3H-thymidine, read-out: IC₅₀
Description: Hemmung der durch anti-CD 3 monoklonale Antikörper induzierten T-Zell-Proliferation in menschlichem Blut
Venöses menschliches Blut wird mit 10 Einheiten Heparin pro ml versetzt und im Verhältnis 1:6 (v:v) mit RPMI 1640 Medium (Gibco) verdünnt. Nach Zugabe von 50 ng/ml anti-CD 3 monoklonalen Antikörpern (TR 66, IgG1K) werden pro Loch 150 µl verdünntes Blut in eine Lochtiterplatte mit 96 Löchern eingefüllt. Dann werden pro Loch 50 µl einer Verbindung der Formeln I oder III in dem obengenannten RPMI Medium hinzugefügt. Als Referenzverbindungen verwendet man Cyclosporin A (CSA, Sandoz, Basel, Schweiz) oder Prednisolon.
Nach 48 Stunden bei 37°C und einem Gehalt von 7 Volumenprozent CO₂ in der Luft fügt man pro Loch 1.0 µCi ³H-Thymidin in 10 µl RPMI Medium (Amersham: spezifische Aktivität 5 Ci/mMol).
Nach weiteren 16 Stunden werden die Zellen mit einer 96-Loch-Erntemaschine (LKB, Bromma, Schweden) auf Glasfiberfiltern (LKB) geerntet. Nach dem Trocknen der Filter wird ihre Radioaktivität gemessen (Optiscint[LKB], Betaplatten-Scintillations-Zähler [LKB]). Die Ergebnisse werden als Durchschnittswerte der für jedes Loch bei drei verschiedenen Konzentrationen in An- und Abwesenheit der Prüfsubstanzen ermittelten cpm (counts pro Minute) ausgedrückt und die Wirkung der Substanzen wird als prozentuale Hemmung angegeben, welche folgendermassen definiert ist: [formula] […]

[10] = test system: durch Interleukin-2 induzierten T-Zell-Proliferation in menschlichem Blut; assay: Inhibition of T-cell proliferation induced by interleukin-2 in human blood (3H-thymidine); assay type: cell-based, menschlich; settings: 100 Einheiten/ml recombinant interleukin-2, read-out: IC₅₀
[11] = Solubility in solvents (qualitative); assay type: physicochemical
Excerpt: Hormaomycin ist neutral, löst sich gut in Methanol, Chloroform, Aceton und Essigsäureethylester und ist in Wasser oder Hexan unlöslich. Auf Dünnschichtchromatographie-Platten löscht es UV-Licht (254 nm), färbt sich beim Stehen an der Luft langsam gelb und lässt sich nach Barrollier (blaugrün) und mit Ehrlich's Reagenz (blass violett), nicht jedoch mit Ninhydrin anfärben.

C/C=C\C1CC2C(=O)OC(C)C(NC(=O)C(CC3CC3[N+](=O)[O-])NC(=O)c3ccc(Cl)n3O)C(=O)NC(C(C)c3ccccc3)C(=O)NC(CC3CC3[N+](=O)[O-])C(=O)NC(C(C)c3ccccc3)C(=O)NC(C(C)CC)C(=O)N2C1 (stereo not shown) [Hormaomycin]
MIC [1]: 0.0001 µg/mL (≈ 0.0885 nM) | MIC [2]: 0.0005 µg/mL (≈ 0.443 nM) | MIC [3]: 10 µg/mL (≈ 8850 nM) | MIC [4]: 0.1 µg/mL (≈ 88.5 nM) | MIC [5]: 50 µg/mL (≈ 44300 nM) | Produktion des Antibiotikums Tirandamycin ([6]; Hormaomycin 0,05 µg/ml added to fermentation broth): Verdoppelung | Produktion des Antibiotikums Tirandamycin ([6]; Hormaomycin 1 µg/ml added to fermentation broth): ungefähre Vervierfachung | minimal effective concentration [7]: ~0.05 µg/mL | Luftmycelbildung [8]: reichliche Luftmycelbildung | IC50 [9]: 1.5 to 15 µM | IC50 [10]: 4 to 40 µM | Löslichkeit ([11]; in Methanol, Chloroform, Aceton und Essigsäureethylester): löst sich gut | Löslichkeit ([11]; in Wasser oder Hexan): unlöslich
